Read-outs that look alike come from different tables or passages of the source.
Experiments:
Murine DMD exon 23 = conditions: mouse, in vivo
dystrophin = conditions: mouse, in vivo
creatine kinase = conditions: mouse, in vivo
Human CD33 exon 2 [1] = conditions: U-87 MG glioblastoma cells; 48 hours; 10% FBS
Description: Cells. Differentiated THP-1 cells (human monocyte cells) and glioblastoma cells (human neuronal cells) were used in this study.
Targeting CD33 expression represents a treatment strategy for AD and cancer. Skipping of exon 2 of the gene expressing CD33 produces D2-CD33, a CD33 isoform that lacks a binding domain of sialic acid. In the absence of such a ligand binding domain, CD33 cannot inhibit microglial activation and phagocytosis of amyloid beta by microglial cells. Such a result is protective against AD.

Human CD33 exon 2 [2] = format: cell-based
[3] = tested on: exon 5 of non-human primate CD33; experiment: CD33 exon 5 skipping (RT-PCR) in monkey PBMC after intravenous infusion; format: in vivo; conditions: NHP; IV infusion 2 mpk (d0) and 5 mpk (d3)
Procedure: NHP Study design. To explore the tolerability of EEV-PMO on non-human primate (NHP), two CPP-PMO constructs as well as PMO itself are dosed in staggered fashion at 2 mpk and 5 mpk through intravenous infusion on d0 and d3, respectively. […] The CPP used was CPP12, which has a cyclic amino acid sequence of FfΦRrRr. PBMCs (peripheral blood mononuclear cells) were isolated at 1 day (d4) and 7 days […] post 5 mpk injection to detect splicing correction. Blood, serum and urine samples were collected at 1 day and or 7 days post each injection for hematology, clinical chemistry, coagulation, urinalysis, cytokine and histamine analysis.
Detection of exon exclusion by RT-PCR. Although human and non-human primates share high sequence homology of CD33 gene, the 5′-UTR and splicing pattern is different. The sequence coding for the IgV domain of CD33 is located in exon 2 for human and located in exon 5 for non-human primate CD33 gene. Therefore, the skipping of exon 2 in human CD33 (D2-CD33), resulting in ΔIgV-CD33 protein, corresponds to the skipping of exon 5 of non-human primate CD33. Monkey PBMC was collected at specified time points mentioned above. Total RNA was extracted, and RT-PCR was conducted using forward primer 5′-[…]-3′ and reverse primer 5′-[…]-3′ resulting in full length CD33 mRNA (FL-CD33) at 700 bp and Exon-5 skipped CD33 mRNA (D5-CD33) at 320 bp.

CD33 = CD33 production by flow cytometry in THP1 cells; format: cell-based, human
Description: Such a result is protective against AD.
Detection of exon 2 skipping by RT-PCR and flow cytometry.

5′-GGCCAAACCTCGGCTTACCTGAAAT-3′ (all PMO monomers) [ENTR-0013]
mRNA correction and dystrophin protein expression in the heart (Murine DMD exon 23): not in 20 mg/kg PMO treated MDX mice | cells positive for dystrophin in cardiac tissue (dystrophin): ≤ 5%

5′-GGCCAAACCTCGGCTTACCTGAAAT-3′-C3NH-PEG4-BCN+Ac-NLS-Lys(CPP12)-PEG12-K(N3) (all PMO monomers) [ENTR-0165]
exon 23 skipping in Quad (Murine DMD exon 23; iv, 20 mg/kg): 38.5±2.5% | exon 23 skipping in diaphragm (Murine DMD exon 23; iv, 20 mg/kg): 30.2±2.8% | exon 23 skipping in heart (Murine DMD exon 23; iv, 20 mg/kg): 30.5±17.0% | expression of dystrophin protein levels (Western Blot) (dystrophin): significantly corrected the expression of dystrophin protein levels

5′-GGCCAAACCTCGGCTTACCTGAAAT-3′-C3NH-PEG4-BCN+Lys(N3)-miniPEG-NLS-ss-bA-bA-CPP12 (all PMO monomers) [ENTR-0164]
exon 23 skipping in Quad (Murine DMD exon 23; iv, 20 mg/kg): 59.5±2.2% | exon 23 skipping in diaphragm (Murine DMD exon 23; iv, 20 mg/kg): 61.0±13.7% | exon 23 skipping in heart (Murine DMD exon 23; iv, 20 mg/kg): 29.1±0.8% | expression of dystrophin protein levels (Western Blot) (dystrophin): significantly corrected the expression of dystrophin protein levels

5′-GGCCAAACCTCGGCTTACCTGAAAT-3′-click-K-PEG12-Lys(CPP12)-NLS-Ac (all PMO monomers) [ENTR-0201]
amount of splicing correction at 10 mg/kg versus 5 mg/kg (Murine DMD exon 23): higher amount of splicing correction than treatment with 5 mg/kg | exon skipping activity across muscle groups (Murine DMD exon 23): high exon skipping activity across all the muscle groups | mRNA correction and dystrophin protein expression in the heart (Murine DMD exon 23): only observed in 10 mpk ENTR-201 treated MDX mice | performance of CPP12 with Nuclear Localization Sequence versus CPP12 alone (Murine DMD exon 23): outperformed CPP12 alone significantly | splicing correction of dystrophin in the heart and diaphragm (Murine DMD exon 23): also resulted in splicing correction of dystrophin in the heart and in the diaphragm | splicing correction of dystrophin mRNA and dystrophin protein levels (Murine DMD exon 23; 10 mg/kg): significant splicing correction of dystrophin mRNA and dystrophin protein levels | splicing correction of dystrophin in the heart and diaphragm (Murine DMD exon 23; 20 mg/kg): resulted in splicing correction of dystrophin in the heart and in the diaphragm | duration of enhanced exon skipping efficiency (Murine DMD exon 23; iv, 20 mg/kg): significant enhancements in exon skipping efficiency up to four weeks | exon 23 skipping in Quad (Murine DMD exon 23; iv, 20 mg/kg): 73.5±8.4% | exon 23 skipping in diaphragm (Murine DMD exon 23; iv, 20 mg/kg): 79.0±6.8% | exon 23 skipping in heart (Murine DMD exon 23; iv, 20 mg/kg): 60.5±17.2% | splicing correction of dystrophin (Murine DMD exon 23; iv, 20 mg/kg): resulted in splicing correction of dystrophin | splicing correction and dystrophin protein in comparison to 20 mpk PMO (dystrophin): higher amount of both splicing correction and dystrophin protein in all four muscle tissues | duration of restored dystrophin protein (Western Blot) (dystrophin; iv, 20 mg/kg): sustained up to four weeks | dystrophin immunohistochemistry, skeletal muscle fibers (dystrophin; iv, 20 mg/kg): all the skeletal muscle fibers immunostained positive for dystrophin protein | intensity of dystrophin expression in heart muscle tissue (immunohistochemistry) (dystrophin; iv, 20 mg/kg): reaching near normal levels | creatine kinase expression in comparison to control (creatine kinase): decrease in creatine kinase expression in comparison to control | serum creatine kinase level (creatine kinase): normalized the serum creatine kinase level

5′-GTAACTGTATTTGGTACTTCC-3′ (Ac-NLS-Lys(CPP12)-PEG12-K(N3)- (all PMO monomers) [EEV-PMO-CD33-5]
skipping of exon 2 CD33 (RT-PCR) (Human CD33 exon 2 [1]): dose-dependent skipping of exon 2 CD33 | dose dependence of exon 2 skipping (Human CD33 exon 2 [2]): dose-dependent skipping of exon 2 CD33 | improvement of exon 2 skipping compared to unconjugated PMO-CD33 (Human CD33 exon 2 [2]): over 1000 fold | improvement of exon 2 skipping over PMO-CD33 with Endoporter transfection (Human CD33 exon 2 [2]): over 2 fold | skipping of exon 5 of CD33 gene in monkey PBMC [3]: resulted in skipping of exon 5 of CD33 gene

5′-GTAACTGTATTTGGTACTTCC-3′ + CPP12-PEG12-K(CPP12)-PEG12-TFP (all PMO monomers) [EEV-PMO-CD33-4]
production of CD33 (flow cytometry) in comparison to untreated (NT) cells (CD33): reduced production of CD33 | dose dependence of exon 2 skipping (Human CD33 exon 2 [2]): dependent on the dose | efficacy in inducing human CD33 exon 2 skipping (PMO sequence optimization) (Human CD33 exon 2 [2]): superior efficacy | potency of bivalent versus monovalent EEV-PMO-CD33 in inducing CD33 exon 2 skipping (Human CD33 exon 2 [2]): more potent than EEV-PMO-CD33-2 | skipping of exon 2 of CD33 (RT-PCR) (Human CD33 exon 2 [2]): resulted in skipping of exon 2 and the production of D2-CD33

From patent publication US20240358845A1 (priority 2021, published 2024)
